# Legend:
# [1] = target: T1, GABAA α1β2γ2(Q390X) receptors (Homo sapiens, UniProt P14867+P18507+P47870, DEL390-467); assay: Patch clamp current amplitude, α1β2γ2(Q390X) receptors in HEK 293T cells; format: cell-based; details: 1 μm, 4 hrs; GABA 1 mM
# T1 construct: expressed in transfected cells; host or cells: HEK 293T
# Method: HEK 293T cells were transfected with the human GABAA receptor α1, β2 subunits with the wild-type γ2s, the mutant γ2s(Q390X) or γ2s(R82Q) subunits for 48 hrs. […] A. Lifted whole cells were recorded with the application of GABA 1 mM for 6 sec. Cells was voltage clamped at −50 mV.
# HEK 293T cells were transfected with the human GABAA receptor α1, β2 subunits with the wild-type γ2s, the mutant γ2s(Q390X) or γ2s(R82Q) subunits for 48 hrs.
# GABAergic mIPSCs = GABAergic mIPSCs in cortical layer VI pyramidal neurons of Gabrg2+/Q390X mice; format: in vivo, mouse
# Source text: […]. This effect is consistent with its upregulation of GABAA receptor subunits. There is no difference between the decay tau (time constant) in the condition treated with celastrol vs non treated. (n=7-9 cells from 3 mice in each group, *P<0.05, ** P<0.01 vs het).
# Coronal ([…]) or horizontal ([…] thick) brain slices containing thalamic neurons in nucleus reticularis thalami (nRT), ventrobasal nucleus (VBn), Ventral lateral thalamus (VL) and cortex will be sectioned with a vibratome in ice-cooled solution containing (in mM) 214 Sucrose, 2.5 KCl, 1.25 NaH2PO4, 0.5 CaCl2), 10 MgSO4, 24 NaHCO3, and 11 D-glucose, pH 7.4 bubbled with 95% O2/5% CO2 at 4° C. Slices are then incubated in oxygenated artificial cerebrospinal fluid (ACSF)^40 at 36° C. for 30 min (Moyer and Brown, 1998). After this, slices will be kept at room temperature for at least 1 hr before recording on a Nikon Eclipse FN-1 IR-DIC microscope at room temperature. Pipette internal solution will contain (in mM): 135 CsCl, 10 EGTA, 10 HEPES, 5 ATP-Mg, and QX-314 (5 mM) (pH 7.25, 290-295 mOsm), and resistances will be of 2-4 MΩ (25). Tetrodotoxin (TIX) 1 μm will be added to the external solution. We will record the neurons in layer V-VI in somatosemsory cortex in this application. The experimental details have been described before^39.
# seizure activity = assay: Oral gavage for 2 weeks, seizure threshold and seizure activity; format: in vivo, mice; details: oral gavage 3 mg/kg for 2 weeks
# [2] = Brain and plasma concentration of celastrol in mice (IP, oral gavage)
# Source text: For chronic dosing, samples were collected 2 hrs after drug administration.
# Blood samples for drug bioanalysis will be collected in EDTA plasma tubes, immediately centrifuged, and the plasma fraction frozen at −80 C until analysis. Whole brains will also be frozen until analysis. […] Study samples, standards, and quality control samples will be precipitated with acetonitrile containing an internal standard, centrifuging the samples, and then injecting the supernatant onto a reverse phase LC/MS/MS system. Assay performance will be checked with retention time, peak shape, and quality control samples. The free drug concentration from animal studies will be calculated by multiplying the in vitro plasma free fraction (funbound) by the determined plasma concentrations. […] GABAA receptor subunits, AKT and neuronal survival signaling molecules, heat shock protein and synaptic scaffold proteins will be the focus.
# CYP 2C8 = CYP 2C8 (Homo sapiens, UniProt P10632); assay: biochemical
# PI3K/AKT pathway = PI3K/AKT pathway activation in vitro; format: cell-based
# [3] = MDCKII bidirectional assay; format: in vitro ADME; details: dog
# Source text: (§1) MDCKII bidirectional assay was run in collaboration with Dr. Shaun Stauffer in Vanderbilt Institute of Chemical Biology (VICB) synthesis core who is a consultant on this project.
# MDCKII cells = assay: MDCKII bidirectional assay; format: in vitro ADME; details: MDCK II bidirectional assay
# Source text: as §1
# [4] = rats; cited from earlier work
# [5] = Tolerability of repeated daily IP dosing in mice; format: in vivo
# Gabrg2^+/Q390X mice = assay: EEG spike-wave discharges (SWD) in Gabrg2+/Q390X mice after 14 days dosing; format: in vivo, mouse
# Method: (FIG. 4A). […] . (FIG. 4B). In 4B, the mice were recorded for 24 hrs for EEGs and a uniform 5-min of EEGs was scored for each hour. The SWDs with duration >1 sec were quantified.
# Sequence of CYP 2C8 (P10632 whole entry): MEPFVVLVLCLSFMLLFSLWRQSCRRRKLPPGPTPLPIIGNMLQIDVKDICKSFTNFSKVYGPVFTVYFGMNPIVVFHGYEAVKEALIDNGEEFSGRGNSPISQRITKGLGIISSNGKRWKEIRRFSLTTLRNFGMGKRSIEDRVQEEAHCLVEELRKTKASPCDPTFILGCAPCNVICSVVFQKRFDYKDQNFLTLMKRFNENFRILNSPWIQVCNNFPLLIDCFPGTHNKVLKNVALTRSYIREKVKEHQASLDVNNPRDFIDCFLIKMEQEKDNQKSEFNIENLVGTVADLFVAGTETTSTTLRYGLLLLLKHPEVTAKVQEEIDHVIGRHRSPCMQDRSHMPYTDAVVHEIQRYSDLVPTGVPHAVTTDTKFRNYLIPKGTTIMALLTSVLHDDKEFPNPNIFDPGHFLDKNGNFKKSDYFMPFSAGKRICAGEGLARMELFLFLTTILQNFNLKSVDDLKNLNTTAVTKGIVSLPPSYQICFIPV
# T1 sequence (P14867 28-456, stated change not applied): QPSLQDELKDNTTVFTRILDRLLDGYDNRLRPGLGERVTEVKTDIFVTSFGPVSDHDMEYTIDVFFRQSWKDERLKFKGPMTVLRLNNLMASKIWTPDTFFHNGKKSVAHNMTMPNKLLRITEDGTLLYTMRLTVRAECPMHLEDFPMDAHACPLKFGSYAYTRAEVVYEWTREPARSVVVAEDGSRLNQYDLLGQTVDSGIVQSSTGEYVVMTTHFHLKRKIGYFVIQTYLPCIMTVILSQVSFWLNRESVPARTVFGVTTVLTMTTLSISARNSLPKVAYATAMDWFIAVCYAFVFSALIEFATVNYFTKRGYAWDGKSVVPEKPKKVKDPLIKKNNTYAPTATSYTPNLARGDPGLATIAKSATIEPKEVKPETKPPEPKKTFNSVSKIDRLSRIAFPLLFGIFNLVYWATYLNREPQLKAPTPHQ
# T1 sequence (P47870 26-512, stated change not applied): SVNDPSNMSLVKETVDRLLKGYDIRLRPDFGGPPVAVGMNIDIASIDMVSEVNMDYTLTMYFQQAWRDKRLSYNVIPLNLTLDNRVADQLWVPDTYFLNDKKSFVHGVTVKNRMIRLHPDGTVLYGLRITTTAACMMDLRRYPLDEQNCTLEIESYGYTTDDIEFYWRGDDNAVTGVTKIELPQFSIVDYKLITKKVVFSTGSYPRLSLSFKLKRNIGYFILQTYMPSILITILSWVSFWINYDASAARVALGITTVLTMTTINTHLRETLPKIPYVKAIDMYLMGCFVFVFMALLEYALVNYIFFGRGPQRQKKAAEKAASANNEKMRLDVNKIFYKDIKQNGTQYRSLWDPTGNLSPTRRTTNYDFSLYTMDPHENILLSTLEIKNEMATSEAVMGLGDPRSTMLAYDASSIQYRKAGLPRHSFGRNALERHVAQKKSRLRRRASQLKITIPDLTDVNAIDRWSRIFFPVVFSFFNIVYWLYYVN
# T1 sequence (P18507 40-389 isoform P18507-1 limits assumed, stated change not applied): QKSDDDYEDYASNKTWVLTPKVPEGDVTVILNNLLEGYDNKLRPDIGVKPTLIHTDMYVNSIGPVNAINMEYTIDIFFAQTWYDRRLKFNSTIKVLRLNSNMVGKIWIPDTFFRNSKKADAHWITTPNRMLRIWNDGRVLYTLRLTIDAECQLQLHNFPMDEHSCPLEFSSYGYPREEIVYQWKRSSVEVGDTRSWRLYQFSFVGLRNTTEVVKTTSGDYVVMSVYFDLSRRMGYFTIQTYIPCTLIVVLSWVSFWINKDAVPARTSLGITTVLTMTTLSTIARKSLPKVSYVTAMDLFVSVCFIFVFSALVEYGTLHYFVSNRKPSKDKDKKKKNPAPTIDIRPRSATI
compound,measurement,setting,value
"CC1=C(O)C(=O)C=C2C1=CC=C1[C@@]2(C)CC[C@@]2(C)[C@@H]3C[C@](C)(C(=O)O)CC[C@]3(C)CC[C@]12C [Celastrol, 3-Hydroxy-9β,13α-dimethyl-2-oxo-24,25,26-trinoroleana-1(10),3,5,7-tetraen-29-oic acid]",current amplitude,[1],increased
same,amplitude of GABAergic mIPSCs,GABAergic mIPSCs; 0.3 mg/kg IP for 14 days,increased
same,frequency of GABAergic mIPSCs,GABAergic mIPSCs; 0.3 mg/kg IP for 14 days,increased
same,decay tau (time constant),GABAergic mIPSCs; treated vs non treated,no difference
same,seizure threshold and seizure activity,seizure activity,increasing seizure threshold and reducing seizure activity
same,celastrol concentration in the mouse brain,[2]; level with good efficacy,120-150 nm
same,Kp at 24 h,"[2]; mouse, brain, intraperitoneal, 0.3 mg/kg",> 1.2
same,concentration at 2 h,"[2]; mouse, brain, po, 3 mg/kg",121 nM
same,IC50,CYP 2C8,2.19 µM
same,PI3K/AKT pathway,PI3K/AKT pathway,activate PI3K/AKT pathway
same,Papp,"[3]; MDCK, MDCKII cells, read-out: apparent membrane permeability Papp",≥ 1 ×10⁻⁶ cm/s
same,Papp A→B,[3]; MDCK II bidirectional assay,56.5 ×10⁻⁶ cm/s
same,efflux,MDCKII cells,no significant efflux
same,oral bioavailability (reported),[4],17.1%
same,adverse signs,"[5]; 3 and 6 mg/kg IP daily, Gabrg2^+/Q390X mice","lethargy, unkempt fur"
same,adverse signs,"[5]; IP 3 mg/kg daily for 5 days, starting at day 4","lethargy, unkempt fur and weight loss"
same,tolerability,"[5]; IP 0.3, 0.6 and 1.5 mg/kg daily for 7 days, C57BL/6J mice",tolerated well
same,adverse effect at doses other than 3 and 6 mg/kg,[5]; IP daily 2 weeks or oral gavage 14 days,no adverse effect
same,efficacy and tolerability,Gabrg2^+/Q390X mice; 0.3 mg/kg IP daily for 14 days,good efficacy and tolerability
same,seizures,Gabrg2^+/Q390X mice; 1 and 5 mg/kg via oral gavage,seizure reduction
same,frequency of SWDs,"Gabrg2^+/Q390X mice; IP or oral gavage daily for 14 days, SWDs >1 sec, 24 hrs EEG",dose dependently reduced

# Reference: patent US20200000752A1, “Method for Treating Epilepsy” (Vanderbilt University, priority 2016, published 2020)
